This note sets out measurements from US11351151B2, “Compound having anticancer activity and preparation method and application” (3D Medicines (Beijing) Co., Ltd., priority 2016, dated 2022).

A value given as a limit tells only on which side of the number the result lay.

What all share (test): Cell proliferation assay (Alamar Blue)
Common to all, as to type: cell-based
On the technique in general: The colour change of resazurin is a common sign of viable cells or microbes.

For one test, the system named is 22RV1. The settings on record: Homo sapiens, 144 h; 22RV1 tumor cell line; 6 days. An outline of the steps:
(§1)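 Cells seeded at 500–1×10^4/well, allowed 4 h at 37 °C, 5% CO2, then given 9-point compound series (3.16-fold from 30 or 100 μM top). After 6 days, AlamarBlue added 1–4 h and fluorescence read (ex 560/em 590 nm); IC50 from four-parameter nonlinear regression of inhibition versus 0% and 100% controls.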

The next test has as its system AN3CA. The following applies: for IC50: Homo sapiens, AN3-CA, 144 h, AN3CA (endometrial cells), 6 days. An outline of the steps: as §1
The next test has as its system Alexander cells. The following applies: 144 h, liver cancer cell line, 6 days. The essentials:
as §1

A further test has as its system HCCLM3. The settings on record: Homo sapiens, 144 h; HCCLM3 tumor cell line; 6 days. The essentials: as §1
The test system of another test is HEPG2. The following applies: Homo sapiens, 144 h; HEPG2 liver cancer cell line; 6 days. The essentials:
as §1

The subject of another test is HT1080. The settings on record: Homo sapiens, HT-1080, 144 h; HT1080 tumor cell line; 6 days. The essentials:
as §1

A further test relates to HUH1. The following applies: Homo sapiens, HuH-1, 144 h; HUH1 liver cancer cell line; 6 days. An outline of the steps:
as §1

Another test relates to Hep3B2.1-7. The following applies: 144 h; Hep3B2.1-7 liver cancer cell line; 6 days. An outline of the steps:
as §1

The test system of a further test is JHH1. The following applies: 144 h; JHH1 liver cancer cell line; 6 days. The essentials: as §1
For a further test, the system named is JHH2. The settings on record: JHH-2, 144 h; JHH2 liver cancer cell line; 6 days. The essentials: as §1
The next test has as its system JHH7. The following applies: 144 h; JHH7 liver cancer cell line; 6 days. The essentials:
as §1

A further test concerns KASUMI-1. The settings on record: KASUMI-1 (leukemia cells); for IC50: Homo sapiens, 144 h, 6 days. The essentials:
as §1

The test system of a further test is KM12. The following applies: Homo sapiens, 144 h; KM12 tumor cell line; 6 days. The essentials: as §1
For the next test, the system named is LNCAP-clone-FGC. The following applies: Homo sapiens, 144 h; LNCAP-clone-FGC tumor cell line; 6 days. The essentials: as §1
The subject of another test is NCl-H526. The following applies: 144 h; NCl-H526 tumor cell line; 6 days. The essentials: as §1
The subject of another test is SK-HEP-1. The settings on record: Homo sapiens, SK-HEP1, 144 h; SK-HEP-1 liver cancer cell line; 6 days. An outline of the steps:
as §1

The test system of another test is SNU354. The following applies: Homo sapiens, SNU-354, 144 h; SNU354 liver cancer cell line; 6 days. The essentials:
as §1

The next test concerns SNU423. The following applies: Homo sapiens, SNU-423, 144 h; SNU423 liver cancer cell line; 6 days. The essentials: as §1
The subject of a further test is SNU475. The following applies: Homo sapiens, SNU-475, 144 h; SNU475 liver cancer cell line; 6 days. The essentials:
as §1

A further test relates to SNU739. The settings on record: SNU-739, 144 h; SNU739 liver cancer cell line; 6 days. An outline of the steps: as §1
For a further test, the system named is SNU761. The settings on record: 144 h; SNU761 liver cancer cell line; 6 days. An outline of the steps:
as §1

The subject of another test is T.T. The following applies: Homo sapiens, TT, 144 h; T.T tumor cell line; 6 days. An outline of the steps: as §1
For another test, the system named is TE-15. The settings on record: Homo sapiens, 144 h; TE-15 tumor cell line; 6 days. An outline of the steps:
as §1

Consider `Cc1ccc(F)c(NC(=O)Nc2ccc(-c3cccc4c3c(N)nn4C(=O)C[C@H](N)C(=O)O)cc2)c1` [Compound 10], for which the IC50 in the test on 22RV1 came out at 6.21 µM; in the test on AN3CA, 240 nM; in the test on Alexander cells it was 5.31 µM; in the test on HCCLM3, 8.97 µM; in the test with HEPG2, 0.37 µM; in the test on HT1080, 8.82 µM. Further, the IC50 with HUH1 stood at 3.47 µM; in the test with Hep3B2.1-7, 1.23 µM; in the test on JHH1 it was 7.43 µM; in the test with JHH2, 25.1 µM; in the test on JHH7 it was 1.65 µM; in the test with KASUMI-1, 42 nM. Further, the 50% inhibitory concentration (IC50) with KM12 amounted to 1.47 µM; in the test with LNCAP-clone-FGC, 5.13 µM; with NCl-H526, 4.39 µM; in the test with SK-HEP-1, 2.75 µM; in the test on SNU354, 4.57 µM; with SNU423 it was 8.62 µM. The IC50 worked out at 3.88 µM in the test with SNU475; 3.87 µM in the test with SNU739; 9.04 µM in the test with SNU761; 4.37 µM with T.T; 6.31 µM in the test on TE-15.
`Cc1ccc(F)c(NC(=O)Nc2ccc(-c3cccc4c3c(N)nn4C(=O)CCCCCCCCCCCNC(=O)C[C@H](N)C(=O)N[C@@H](CCC(=O)N[C@@H](CCC(=O)N[C@@H](CCC(=O)N[C@@H](CCC(=O)O)C(=O)O)C(=O)O)C(=O)O)C(=O)O)cc2)c1` [Compound 8]: the IC50 is more than 100 µM with 22RV1; 3140 nM in the test with AN3CA; more than 100 µM with Alexander cells; more than 100 µM in the test with HCCLM3; 21.4 µM in the test on HEPG2; 45.3 µM with HT1080. Also, the 50% inhibitory concentration (IC50) was 31.9 µM with HUH1; 36.2 µM in the test on Hep3B2.1-7; 35.4 µM with JHH1; more than 100 µM in the test with JHH2; 20.7 µM with JHH7; 100 nM in the test with KASUMI-1. The IC50 was 12.4 µM in the test on KM12; more than 100 µM with LNCAP-clone-FGC; 100 µM with NCl-H526; more than 100 µM in the test with SK-HEP-1; 40.6 µM with SNU354; 36.9 µM in the test with SNU423. Moreover, the IC50 with SNU475 is 57.5 µM; with SNU739, 64.9 µM; in the test on SNU761 it was 80.1 µM; in the test with T.T, more than 100 µM; in the test on TE-15 it was 42.7 µM. The “difference of IC50 value versus Linifanib” value in the test with AN3CA (AN3-CA (endometrial cells)) is 16.7 times; in the test on KASUMI-1, 10 times.
`Cc1ccc(F)c(NC(=O)Nc2ccc(-c3cccc4[nH]nc(N)c34)cc2)c1` [Linifanib, reference compound]: the IC50 with 22RV1 came out at 7.5 µM; in the test with AN3CA, 190 nM; in the test on Alexander cells, 4.09 µM; in the test with HCCLM3 it was 6.67 µM; with HEPG2, 0.83 µM; with HT1080, 6.4 µM. In addition, the IC50 came to 3.25 µM in the test with HUH1; 1.96 µM with Hep3B2.1-7; 12.2 µM with JHH1; 29.5 µM in the test with JHH2; 1.83 µM in the test with JHH7; 10 nM with KASUMI-1. For the same compound, the half-inhibitory concentration (IC50) worked out at 1.39 µM with KM12; 11.3 µM with LNCAP-clone-FGC; 7.8 µM in the test on NCl-H526; 7.11 µM with SK-HEP-1; 4.58 µM with SNU354; 9.24 µM in the test with SNU423. The 50% inhibitory concentration (IC50) came to 5.37 µM in the test on SNU475; 5.45 µM in the test on SNU739; 8.98 µM in the test on SNU761; 4.86 µM in the test with T.T; 3.6 µM in the test on TE-15.
With `Cc1ccc(F)c(NC(=O)Nc2ccc(-c3cccc4c3c(N)nn4C(=O)CCCCCNC(=O)C[C@H](N)C(=O)N[C@@H](CCC(=O)O)C(=O)O)cc2)c1` [Compound 4], the IC50 in the test on 22RV1 was more than 100 µM; with AN3CA, 28600 nM; in the test on Alexander cells, 97.2 µM; with HCCLM3 it was 82 µM; in the test with HEPG2, 19 µM; with HT1080 it was more than 100 µM. Also, the IC50 in the test on HUH1 was 66.8 µM; in the test on Hep3B2.1-7 it was 69.8 µM; with JHH1 it was more than 100 µM; with JHH2 it was more than 100 µM; with JHH7 it was 45.9 µM; in the test on KASUMI-1, 1710 nM. Moreover, the IC50 is 33.9 µM in the test on KM12; 75.3 µM in the test on LNCAP-clone-FGC; more than 100 µM in the test with NCl-H526; 64 µM in the test with SK-HEP-1; 78.8 µM with SNU354; more than 100 µM in the test with SNU423. Moreover, the IC50 in the test on SNU475 is 81.3 µM; with SNU739 it was 73.8 µM; in the test with SNU761, 85 µM; in the test with T.T, more than 100 µM; with TE-15, more than 100 µM.
As to `Cc1ccc(F)c(NC(=O)Nc2ccc(-c3cccc4c3c(N)nn4C(=O)C[C@H](N)C(=O)N[C@@H](CCC(=O)N[C@@H](CCC(=O)N[C@@H](CCC(=O)N[C@@H](CCC(=O)O)C(=O)O)C(=O)O)C(=O)O)C(=O)O)cc2)c1` [Compound 2], the IC50 with 22RV1 came to 7.81 µM; in the test with AN3CA, 450 nM; with Alexander cells it was 5.21 µM; in the test with HCCLM3, 15.8 µM; in the test on HEPG2 it was 0.64 µM; with HT1080, 19.3 µM. Moreover, the IC50 in the test with HUH1 came to 6.71 µM; in the test on Hep3B2.1-7 it was 3.43 µM; in the test with JHH1 it was 11.3 µM; in the test with JHH2, 36 µM; in the test with JHH7 it was 2.84 µM; in the test on KASUMI-1, 120 nM. Also, the IC50 in the test with KM12 stood at 2.94 µM; in the test with LNCAP-clone-FGC, 6.34 µM; in the test on NCl-H526, 8.94 µM; in the test on SK-HEP-1, 9.25 µM; in the test on SNU354 it was 7.01 µM; in the test with SNU423 it was 14.4 µM. Besides, the IC50 with SNU475 is 6.37 µM; in the test on SNU739, 6.33 µM; in the test on SNU761, 15.3 µM; in the test with T.T, 8.29 µM; in the test with TE-15, 8.45 µM.
In the case of `Cc1ccc(F)c(NC(=O)Nc2ccc(-c3cccc4c3c(N)nn4C(=O)CCCCCNC(=O)C[C@H](N)C(=O)O)cc2)c1` [Compound 11], the 50% inhibitory concentration (IC50) in the test on 22RV1 was found to be 90.1 µM; in the test with AN3CA, 20200 nM; with Alexander cells, 79.5 µM; in the test with HCCLM3, 74.3 µM; with HEPG2 it was 11.1 µM; in the test with HT1080, 94.4 µM. The half-inhibitory concentration (IC50) is 50.6 µM with HUH1; 50.4 µM with Hep3B2.1-7; more than 100 µM with JHH1; 93.5 µM in the test with JHH2; 40 µM with JHH7; 1210 nM in the test with KASUMI-1. Further, the IC50 is 28.5 µM in the test with KM12; 70.9 µM with LNCAP-clone-FGC; 92.4 µM in the test on NCl-H526; 55.4 µM with SK-HEP-1; 63.3 µM with SNU354; more than 100 µM with SNU423. For the same compound, the IC50 is 76.1 µM with SNU475; 64 µM in the test with SNU739; 77 µM in the test on SNU761; more than 100 µM in the test on T.T; more than 100 µM with TE-15.

As usually defined, the IC50 is the point on the concentration scale where inhibition reaches its midpoint. A low value points to greater potency in that assay.
